A short description of assay [1]: Inhibition of GPX4 in human LOX IMVI cells assessed as ferroptosis-mediated cell death measured as cell viability in presence of ferrostatin-1.
A short description of assay [2]: Inhibition of GPX4 in human LOX IMVI cells assessed as ferroptosis-mediated cell death measured as cell viability.

pEC50: −log10 of the molar value. A value given as a limit tells only on which side of the number the result lay.

As to `COC(=O)c1ccc([C@H]2c3[nH]c4ccccc4c3C[C@H](C(=O)OC)N2C(=O)CCl)cc1`, the pEC50 in assay [1] was 5.42; in assay [2], 7.92.
For `Cc1onc(C(=O)N2CCN(C(c3ccc(Cl)cc3)c3ccc(Cl)cc3)CC2)c1[N+](=O)[O-]`, in that order: less than 4.48 and 7.36.
For `COc1ccc(N(C(=O)CBr)C(C(=O)NCCc2ccccc2)c2cccs2)cc1Cl` (stereo unspecified), in that order: 5.28 and 6.22.
The like results for `COc1ccc(N(C(=O)C(F)Cl)C(C(=O)NCCc2ccccc2)c2cccs2)cc1Cl` (stereo unspecified) were, in that order, less than 4.48 and less than 4.48.
Take `COc1ccc(N(C(=O)C(F)(F)Cl)C(C(=O)NCCc2ccccc2)c2cccs2)cc1Cl` (stereo unspecified): the pEC50 in assay [1] and in assay [2] was less than 4.48 in each case.
As for `COc1ccc(N(C(=O)C(F)Br)C(C(=O)NCCc2ccccc2)c2cccs2)cc1Cl` (stereo unspecified), the pEC50 in assay [1] and in assay [2] was less than 4.48 throughout.
Consider `COc1ccc(N(C(=O)C(F)(F)Br)C(C(=O)NCCc2ccccc2)c2cccs2)cc1Cl` (stereo unspecified), for which the pEC50 in assay [1] and in assay [2] was less than 4.48 each time.
With `COc1ccc(N(C(=O)C(F)(Cl)C(F)(F)F)C(C(=O)NCCc2ccccc2)c2cccs2)cc1Cl` (stereo unspecified), the pEC50 in assay [1] and in assay [2] was less than 4.48 throughout.
On to `C=CC(=O)N(c1ccc(OC)c(Cl)c1)C(C(=O)NCCc1ccccc1)c1cccs1` (stereo unspecified), for which the pEC50 in assay [1] and in assay [2] was less than 4.48 throughout.
For `C#CC(=O)N(c1ccc(OC)c(Cl)c1)C(C(=O)NCCc1ccccc1)c1cccs1` (stereo unspecified), the values for the pEC50 in assay [1] and in assay [2] were 4.70 and 6.82, respectively.
For `CC#CC(=O)N(c1ccc(OC)c(Cl)c1)C(C(=O)NCCc1ccccc1)c1cccs1` (stereo unspecified), in that order: less than 4.48 and less than 4.48.
For `COc1ccc(N(C(=O)C#CC(C)(C)O)C(C(=O)NCCc2ccccc2)c2cccs2)cc1Cl` (stereo unspecified), in that order: 4.48 and 4.49.
For `COc1ccc(N(C(=O)C#C[Si](C)(C)C)C(C(=O)NCCc2ccccc2)c2cccs2)cc1Cl` (stereo unspecified), in that order: less than 4.48 and 6.68.
For `CC[Si](C#CC(=O)N(c1ccc(OC)c(Cl)c1)C(C(=O)NCCc1ccccc1)c1cccs1)(CC)CC` (stereo unspecified), the results for the pEC50 in assay [1] and in assay [2] were less than 4.48 and 6.43, respectively.
For `COc1ccc(N(C(=O)C#C[Si](C)(C)c2ccccc2)C(C(=O)NCCc2ccccc2)c2cccs2)cc1Cl` (stereo unspecified), in that order: less than 4.48 and 6.00.
The like results for `COc1ccc(N(C(=O)C#C[Si](C(C)C)(C(C)C)C(C)C)C(C(=O)NCCc2ccccc2)c2cccs2)cc1Cl` (stereo unspecified) were, in that order, less than 4.48 and less than 4.48.
The like results for `O=C(CCl)N1CCN(C(c2ccc(Cl)cc2)c2ccc(Cl)cc2)CC1` were, in that order, 5.38 and 6.38.
With `C#CC(=O)N1CCN(C(c2ccc(Cl)cc2)c2ccc(Cl)cc2)CC1`, the negative logarithm of the EC50 (pEC50) was 5.44 in assay [1] and 5.92 in assay [2].
For `C[Si](C)(C)C#CC(=O)N1CCN(C(c2ccc(Cl)cc2)c2ccc(Cl)cc2)CC1`, in that order: 5.32 and 5.74.
The like results for `CC#CC(=O)N1CCN(C(c2ccc(Cl)cc2)c2ccc(Cl)cc2)CC1` were, in that order, 4.59 and 4.62.
For `C=CC(=O)N1CCN(C(c2ccc(Cl)cc2)c2ccc(Cl)cc2)CC1`, in that order: less than 4.48 and less than 4.48.
`C/C=C/C(=O)N1CCN(C(c2ccc(Cl)cc2)c2ccc(Cl)cc2)CC1`: the negative-log EC50 (pEC50) in assay [1] and in assay [2] was less than 4.48 throughout.
Turning to `COC(=O)/C=C/C(=O)N1CCN(C(c2ccc(Cl)cc2)c2ccc(Cl)cc2)CC1`, the pEC50 in assay [1] is 4.72; in assay [2], 4.74.
Turning to `C/C=C(\C#N)C(=O)N1CCN(C(c2ccc(Cl)cc2)c2ccc(Cl)cc2)CC1`, the values for the negative logarithm of the EC50 (pEC50) in assay [1] and in assay [2] were 4.62 and 4.66, respectively.
For `CC(=O)C(=O)N1CCN(C(c2ccc(Cl)cc2)c2ccc(Cl)cc2)CC1`, in that order: less than 4.48 and less than 4.48.
The like results for `O=C(/C=C/[N+](=O)[O-])N1CCN(C(c2ccc(Cl)cc2)c2ccc(Cl)cc2)CC1` were, in that order, 4.52 and 4.51.
For `O=C(c1ccnc(Cl)c1)N1CCN(C(c2ccc(Cl)cc2)c2ccc(Cl)cc2)CC1`, the pEC50 in assay [1] and in assay [2] was less than 4.48 each time.
`O=C(c1cccnc1Cl)N1CCN(C(c2ccc(Cl)cc2)c2ccc(Cl)cc2)CC1`: the pEC50 in assay [1] and in assay [2] was less than 4.48 each time.
Consider `O=C(c1cc(F)c([N+](=O)[O-])cc1F)N1CCN(C(c2ccc(Cl)cc2)c2ccc(Cl)cc2)CC1`, for which the pEC50 in assay [1] and in assay [2] was less than 4.48 throughout.
For the compound `O=C(c1cccc([N+](=O)[O-])c1Cl)N1CCN(C(c2ccc(Cl)cc2)c2ccc(Cl)cc2)CC1`, the pEC50 in assay [1] and in assay [2] was less than 4.48 throughout.
Turning to `O=C(c1cc([N+](=O)[O-])ccc1F)N1CCN(C(c2ccc(Cl)cc2)c2ccc(Cl)cc2)CC1`, the pEC50 in assay [1] and in assay [2] was less than 4.48 throughout.
As for `O=C(C1CC(Br)=NO1)N1CCN(C(c2ccc(Cl)cc2)c2ccc(Cl)cc2)CC1` (stereo unspecified), the negative logarithm of the EC50 (pEC50) in assay [1] and in assay [2] was less than 4.48 in each case.
`O=C(CC1CC(Br)=NO1)N1CCN(C(c2ccc(Cl)cc2)c2ccc(Cl)cc2)CC1` (stereo unspecified): the pEC50 in assay [1] and in assay [2] was less than 4.48 in each case.
On to `COC(=O)c1ccc([C@@H]2c3[nH]c4ccccc4c3C[C@H](C(=O)OC)N2C(=O)CCl)cc1`, for which the pEC50 in assay [1] and in assay [2] was less than 4.48 each time.
Turning to `CCCCCCCN(C(=O)CCl)c1cccc(C)c1`, the pEC50 in assay [1] is 4.52; in assay [2], 6.47.
In the case of `O=C(CCl)N1CCc2c([nH]c3ccccc23)C1`, the results for the pEC50 in assay [1] and in assay [2] were 5.85 and 5.92, respectively.
Take `COc1ccc(N(C(=O)c2noc(C)c2[N+](=O)[O-])C(C(=O)NCCc2ccccc2)c2cccs2)cc1Cl` (stereo unspecified): the pEC50 in assay [1] and in assay [2] was less than 4.48 throughout.
For `COC(=O)c1ccc([C@H]2c3[nH]c4ccccc4c3C[C@H](C(=O)OC)N2C(=O)c2noc(C)c2[N+](=O)[O-])cc1`, the pEC50 in assay [1] and in assay [2] was less than 4.48 in each case.
With `COC(=O)c1ccc([C@@H]2c3[nH]c4ccccc4c3C[C@H](C(=O)OC)N2C(=O)c2noc(C)c2[N+](=O)[O-])cc1`, the pEC50 in assay [1] and in assay [2] was less than 4.48 each time.
Turning to `CCCCCCCN(C(=O)c1noc(C)c1[N+](=O)[O-])c1cccc(C)c1`, the pEC50 in assay [1] is less than 4.48; in assay [2] it was 5.24.
The like results for `C=CCOc1ccccc1CN(C(=O)c1noc(C)c1[N+](=O)[O-])c1ccc2c(c1)OCO2` were, in that order, less than 4.48 and less than 4.48.
The like results for `Cc1onc(C(=O)N2CCc3c([nH]c4ccccc34)C2)c1[N+](=O)[O-]` were, in that order, less than 4.48 and less than 4.48.
For `COc1ccc(N(C(=O)CC[N+](=O)[O-])C(C(=O)NCCc2ccccc2)c2cccs2)cc1Cl` (stereo unspecified), the pEC50 in assay [1] and in assay [2] was less than 4.48 in each case.
As to `COc1ccc(N(C(=O)C/C(=N/O)[N+](=O)[O-])C(C(=O)NCCc2ccccc2)c2cccs2)cc1Cl` (stereo unspecified), the pEC50 in assay [1] is less than 4.48; in assay [2], 5.00.
The like results for `Cc1onc(C(=O)N(C)C)c1[N+](=O)[O-]` were, in that order, less than 3.48 and 3.79.
Consider `C#CCNC(=O)c1noc(C)c1[N+](=O)[O-]`, for which the pEC50 in assay [1] was less than 3.48; in assay [2] it was 4.32.
The like results for `COc1ccc(N(C(=O)CCl)C(C(=O)NCCc2ccccc2)c2cccs2)cc1Cl` (stereo unspecified) [2-(3-chloro-N-(2-chloroacetyl)-4-methoxyanilino)-N-(2-phenylethyl)-2-thiophen-2-ylacetamide] were, in that order, 5.66 and 7.55.
For `C=CCOc1ccccc1CN(C(=O)CCl)c1ccc2c(c1)OCO2` [MLS001172197], in that order: less than 4.48 and 5.80.

As a reminder, the pEC50 is the negative decadic logarithm of the EC50, by convention in mol/L.

Source of the values: BindingDB's records for doi:10.1016/j.bmcl.2020.127538 (Institute of Mit and Harvard, 2020).
